Test systems include TK-10 renal; SN12C renal; CAKI-1 renal; 786-0 renal; SF-295 CNS; HOP-92 NSCLC; HCT-116 colon; SK-OV-3 ovarian; BT-549 breast; HCC-2998 colon.
Assay in all cases: NCI anticancer screen, dose series, 48 h

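Tested at 5 concentrations; 48 h exposure; 96-well plates; endpoints linearly interpolated, else capped at highest concentration. GI50 marks 50% less growth. TGI: total growth inhibition.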

With `COC(=O)c1cc(OC)c(OC)c(OC)c1-c1cc2c(cc1C=O)OCO2`, the TGI with TK-10 renal, in the assay on SN12C renal, in the assay with CAKI-1 renal, in the assay with 786-0 renal, in the assay with SF-295 CNS and in the assay with HOP-92 NSCLC was above 10 µM each time. The TGI in the assay with HCT-116 colon, in the assay on SK-OV-3 ovarian, in the assay with BT-549 breast and in the assay on HCC-2998 colon was above 10 µM throughout.

In the case of `Cc1cc(Cl)ccc1C(=O)c1ccc2ccccc2c1C(=O)O`, the TGI in the assay on TK-10 renal, in the assay on CAKI-1 renal, in the assay on 786-0 renal, with SF-295 CNS, with HOP-92 NSCLC and in the assay on HCT-116 colon was above 100 µM in each case. In addition, the TGI in the assay on BT-549 breast and with HCC-2998 colon was above 100 µM in each case.

`Cc1[nH]c2cc(F)ccc2c1-c1nc2c3cccnc3c3ncccc3c2[nH]1`: the GI50 in the assay with TK-10 renal was 0.396 µM; in the assay on SN12C renal it was 0.399 µM; in the assay on CAKI-1 renal, 0.289 µM; in the assay with 786-0 renal it was 0.243 µM; in the assay on SF-295 CNS it was 0.253 µM; in the assay with HOP-92 NSCLC, 0.204 µM. The GI50 with HCT-116 colon is 0.164 µM; in the assay with BT-549 breast, 0.215 µM; in the assay on HCC-2998 colon, 0.117 µM. For the same molecule, the TGI with TK-10 renal came out at 2.34 µM; in the assay with SN12C renal, 3.38 µM; with CAKI-1 renal, 1.19 µM; in the assay with 786-0 renal, 0.973 µM; in the assay on SF-295 CNS it was 0.818 µM; with HOP-92 NSCLC, 1.41 µM. Further, the TGI in the assay on HCT-116 colon was 1.5 µM; in the assay with BT-549 breast it was 1.57 µM; in the assay with HCC-2998 colon, 1.3 µM.

`CN(C)c1cccc(F)c1C(=O)NC(=O)Nc1ccc(Cl)cc1`: the TGI is above 100 µM in the assay with TK-10 renal; above 100 µM in the assay with SN12C renal; 99 µM with CAKI-1 renal; above 100 µM with 786-0 renal; above 21.4 µM with SF-295 CNS; above 100 µM in the assay with HOP-92 NSCLC. Besides, the TGI was above 100 µM in the assay on HCT-116 colon, above 29.3 µM in the assay on SK-OV-3 ovarian, above 100 µM in the assay with BT-549 breast and 28.3 µM in the assay on HCC-2998 colon.

As to `O=C1CC/C(=C/COc2cc(=O)oc3ccccc23)O1`, the GI50 with TK-10 renal was 2.73 µM; in the assay with SN12C renal it was 14.7 µM; in the assay with CAKI-1 renal, 11.9 µM; in the assay on 786-0 renal, 2.54 µM; in the assay on SF-295 CNS, 14.8 µM; in the assay on HOP-92 NSCLC it was 10.5 µM. Moreover, the GI50 in the assay with HCT-116 colon is 6.95 µM; with SK-OV-3 ovarian, 22.9 µM; in the assay on BT-549 breast, 11.5 µM; in the assay on HCC-2998 colon, 15.5 µM. Also, the TGI stood at 10.5 µM in the assay on TK-10 renal; 36 µM with SN12C renal; 28.3 µM with CAKI-1 renal; 15.9 µM with 786-0 renal; 40.6 µM in the assay with SF-295 CNS; 26.9 µM in the assay with HOP-92 NSCLC. The TGI is 19.7 µM in the assay on HCT-116 colon, above 100 µM in the assay on SK-OV-3 ovarian, 24.7 µM with BT-549 breast and 29.5 µM with HCC-2998 colon.

As to `COC(=O)[C@H](Cc1cn(C)cn1)NC(=O)[C@H](C)NC(=O)Nc1cc(C(F)(F)F)cc(C(F)(F)F)c1`, the GI50 with TK-10 renal, in the assay with SN12C renal, in the assay with CAKI-1 renal, in the assay with 786-0 renal, with SF-295 CNS and in the assay with HOP-92 NSCLC was above 10 µM each time. Besides, the GI50 in the assay on HCT-116 colon, in the assay on SK-OV-3 ovarian, in the assay on BT-549 breast and in the assay on HCC-2998 colon was above 10 µM throughout. Besides, the TGI in the assay on TK-10 renal, in the assay with SN12C renal, with CAKI-1 renal, in the assay with 786-0 renal, in the assay with SF-295 CNS and with HOP-92 NSCLC was above 10 µM each time. For the same molecule, the TGI in the assay with HCT-116 colon, in the assay with SK-OV-3 ovarian, in the assay on BT-549 breast and in the assay with HCC-2998 colon was above 10 µM each time.

Take `CN(CCCCCl)P(=O)(OCc1ccc([N+](=O)[O-])o1)OCC1OC(n2cnc([N+](=O)[O-])c2N)C(O)C1O` (stereo unspecified): the GI50 in the assay with TK-10 renal, in the assay with SN12C renal, in the assay with CAKI-1 renal, in the assay with 786-0 renal, in the assay on SF-295 CNS and in the assay on HOP-92 NSCLC was above 100 µM each time. The GI50 with HCT-116 colon, with SK-OV-3 ovarian, in the assay on BT-549 breast and with HCC-2998 colon was above 100 µM in each case. Also, the TGI in the assay with TK-10 renal, with SN12C renal, in the assay with CAKI-1 renal, in the assay with 786-0 renal, in the assay on SF-295 CNS and with HOP-92 NSCLC was above 100 µM in each case. Moreover, the TGI with HCT-116 colon, in the assay on SK-OV-3 ovarian, with BT-549 breast and in the assay with HCC-2998 colon was above 100 µM in each case.

Turning to `CCCCNc1ccc(Nc2ccccc2)cc1`, the GI50 with TK-10 renal is 4.27 µM; in the assay with SN12C renal, 6.28 µM; with CAKI-1 renal, 18.6 µM; with 786-0 renal, 10.4 µM; with SF-295 CNS, 4.63 µM; in the assay on HOP-92 NSCLC it was 3.42 µM. The GI50 in the assay with HCT-116 colon was 2.97 µM; in the assay on SK-OV-3 ovarian, 12.6 µM; with BT-549 breast it was 2.84 µM; with HCC-2998 colon it was 5.73 µM. The TGI is 56.3 µM in the assay on TK-10 renal; above 100 µM with SN12C renal; 88.5 µM in the assay on CAKI-1 renal; 74.6 µM in the assay on 786-0 renal; 64.4 µM with SF-295 CNS; 32.5 µM with HOP-92 NSCLC. Besides, the TGI in the assay on HCT-116 colon is 22.7 µM; with SK-OV-3 ovarian it was 70.3 µM; in the assay with BT-549 breast it was 21.6 µM; in the assay on HCC-2998 colon, above 100 µM.

`CCC(C)C(=O)OCC(=O)c1ccc(-c2ccccc2)cc1` (stereo unspecified): the TGI in the assay with TK-10 renal, with SN12C renal, in the assay on CAKI-1 renal, in the assay on 786-0 renal, with SF-295 CNS and in the assay on HOP-92 NSCLC was above 100 µM each time. For the same molecule, the TGI in the assay with HCT-116 colon, in the assay on SK-OV-3 ovarian, in the assay with BT-549 breast and in the assay on HCC-2998 colon was above 100 µM in each case.
